Data set [1] deals with PDE 1 (Ca2+/calmodulin-dependent). The data set can be described thus: Activity against other Phosphodiesterase enzymes: PDE 1. Format: biochemical. Here is the method: (§1) Additionally, activity of the compounds were tested against other Phosphodiesterase enzymes, namely, PDE 1 (Ca^2+/calmodulin-dependent), PDE 2 (cGP-stimulated), PDE 3 (cGP-inhibited), PDE 5 (cGP-specific) and PDE 6 (cGP-specific, photoreceptor).
(§2) Results were expressed as percent inhibition (IC50) in nM concentrations. The IC50 values were determined from the concentration curves by nonlinear regression analysis.

In another data set the target is PDE4 enzyme. In words: Inhibition of Phosphodiesterase Enzymes (PDE4), [3H]cAMP hydrolysis. Format: biochemical. As to the method:
Inhibition of Phosphodiesterase Enzymes (PDE4)
In this assay, PDE4 enzyme converts [^3H] cAMP to the corresponding [^3H] 5′-AMP in proportion to the amount of PDE4 present The [^3H] 5′-AMP then was quantitatively converted to free [^3H] adenosine and phosphate by the action of snake venom 5′-nucleotidase.
The assay was performed with modification of the method of Thompson and Appleman (Biochemistry; 1971; 10; 311-316) and Schwartz and Passoneau (Proc. Natl. Acad. Sci. U.S.A. 1974; 71; 3844-3848), both references incorporated herein by reference in their entirety, at 34° C. In a 200 ul total reaction mixture, the reaction mixture contained 12.5 mM of Tris, 5 mM MgCl2, 1 μM cAMP (cold) and ^3H cAMP (0.1 uCi), (Amersham). […] Drug samples were then added in the reaction mixture (25 μl/tube). The assay was initiated by addition of enzyme mix (75 μl) and the mixture was incubated for 20 minutes at 34° C. The reaction was stopped by boiling the tubes for 2 mins at 100° C. in a water bath. After cooling on ice for 5 minutes and addition of 50 ug/reaction of 5′-nucleotidase snake venom from Crotalus atrox incubation was carried out again for 20 min. at 34° C. The unreacted substrate was separated from (^3H) Adenosine by addition of Dowex AG 1-X8 (Biorad Lab), (400 ul) which was prequilibrated (1:1:1) in water and ethanol. Reaction mixture was then thoroughly mixed, placed on ice for 15 minutes, vortexed and centrifuged at 14,000 r.p.m. for 2 mins. After centrifugation, a sample of the supernatant was taken and added in 24 well optiplates containing Scintillant (1 ml) and mixed well. The samples in the plates were then determined for radioactivity in a Top Counter and the PDE4 activity was estimated. PDE4 enzyme was present in quantities that yield <30% total hydrolysis of substrate (linear assay conditions).
as §2
The IC50 value for the compound examined was determined from concentration-response curves in which varying range of concentrations were considered as shown in table 1

The target in another data set is PDE 3 (cGP-inhibited). In words: Activity against other Phosphodiesterase enzymes: PDE 3. Format: biochemical. The settings on record: read-out: IC50 values PDE3. Here is the method: as §1, §2
In another data set the test system is PDE4. In words: Cell Based Assay for PDE4 Inhibition: cAMP elevation in whole U937 cells. The settings on record: 1 μM PGE1, normalized over PGE1. As to the method:
Cell Based Assay for PDE4 Inhibition:
cAMP elevation studies were conducted in whole U937 cells. U937 cells (ATCC) were grown in RPMI medium containing 10% FBS, 1% pen-strep solution, 1% L-glutamine for 48 hrs. On the day of assay, the cells were washed twice with plain RPM1 medium by centrifuging at 800 rpm for 5 mins. Cells were resuspended in plain RPM1 medium followed by cell number and viability assessment using a trypan blue stain. Cells (0.15-0.2 mio cells per well) were seeded in a 96 well microtitre plate and incubated with various drugs/DMSO vehicle at 37° C. for 15 min. cAMP generation was started by addition of 1 μM PGE1 for 15 mins. The incubation was terminated by addition of cell lysis buffer from cAMP estimation kit. Lysate was used for cAMP quantitatin by chemiluminescence method (DiscoveRX kits). cAMP values were normalized over PGE1. EC50 values were calculated from dose response curves by nonlinear regression analysis using PRISM software.

For a further data set, the target named is PDE 2 (cGP-stimulated) (Homo sapiens, UniProt O00408). The data set can be described thus: Activity against other Phosphodiesterase enzymes: PDE 2. It is filed as biochemical. The following applies: read-out: IC50 values PDE2. As to the method: as §1, §2
Sequence of PDE 2 (cGP-stimulated) (O00408 whole entry): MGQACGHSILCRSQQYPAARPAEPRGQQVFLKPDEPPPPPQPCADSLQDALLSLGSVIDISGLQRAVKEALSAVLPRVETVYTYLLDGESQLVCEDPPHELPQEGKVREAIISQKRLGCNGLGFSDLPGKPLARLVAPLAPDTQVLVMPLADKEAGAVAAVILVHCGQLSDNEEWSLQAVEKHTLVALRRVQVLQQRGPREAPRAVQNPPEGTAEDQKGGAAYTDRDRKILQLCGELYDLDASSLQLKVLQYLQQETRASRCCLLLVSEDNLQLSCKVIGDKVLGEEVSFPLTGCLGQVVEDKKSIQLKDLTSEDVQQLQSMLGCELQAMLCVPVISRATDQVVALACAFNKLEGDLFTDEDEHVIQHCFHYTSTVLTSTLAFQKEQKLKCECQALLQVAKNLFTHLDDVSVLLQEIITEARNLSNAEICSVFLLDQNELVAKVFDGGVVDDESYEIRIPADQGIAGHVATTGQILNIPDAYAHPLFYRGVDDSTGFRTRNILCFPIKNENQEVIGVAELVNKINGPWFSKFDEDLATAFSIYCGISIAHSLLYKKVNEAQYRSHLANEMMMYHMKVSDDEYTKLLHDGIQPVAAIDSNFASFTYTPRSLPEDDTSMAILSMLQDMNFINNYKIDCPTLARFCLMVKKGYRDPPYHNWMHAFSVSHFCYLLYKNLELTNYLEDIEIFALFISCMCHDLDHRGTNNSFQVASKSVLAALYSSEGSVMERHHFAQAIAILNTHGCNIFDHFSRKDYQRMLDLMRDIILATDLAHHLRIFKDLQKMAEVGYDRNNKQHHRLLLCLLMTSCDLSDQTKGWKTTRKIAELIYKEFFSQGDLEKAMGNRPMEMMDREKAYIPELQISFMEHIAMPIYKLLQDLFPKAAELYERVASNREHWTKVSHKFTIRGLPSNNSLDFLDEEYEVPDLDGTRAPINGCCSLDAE
In data set [2] the target is PDE 6 (cGP-specific, photoreceptor). The data set can be described thus: Activity against other Phosphodiesterase enzymes: PDE 6. Format: biochemical. As to the method:
as §1, §2

[3] abbreviates: PDE4 enzyme, 1 μM cAMP and 3H cAMP, 34° C., read-out: IC50.

Like-named read-outs stand apart in the source and are kept apart here. Where only a bound is given, the exact number is not on record here.

In the case of `COc1ccc(C(=O)Nc2c(Cl)cncc2Cl)c2c1oc1ccccc12` [Example 1, N-(3,5-dichloropyrid-4-yl)-4-methoxy dibenzo[b,d]furan-1-carboxamide], the melting point (commonly the temperature of the solid-liquid transition) came to 302 °C. The % inhibition – broadly, the change of the read-out against control, counted positive when it falls – at 100 µM in data set [1] worked out at 44%. The IC50 (commonly the midpoint of a concentration-inhibition curve) at PDE4 enzyme (setting [3]) turned out to be 0.0008 µM. In addition, the IC50 at PDE4 enzyme (Table 1, read-out: IC50 values PDE4) is 0.0008 µM. Also, the IC50 at PDE 3 (cGP-inhibited) is 61.8 µM. The EC50 (in general, the concentration at which the effect is half-maximal) with PDE4 is 0.0837 µM. At PDE 2 (cGP-stimulated), the IC50 stood at 69.1 µM. Also, in data set [2], the “% inhibition at 100 µM” value came out at 36%.

In the case of `O=C(Nc1c(Cl)cncc1Cl)c1ccc(OC(F)F)c2oc3ccc([N+](=O)[O-])cc3c12` [Example 58, N-(3,5-dichloropyrid-4-yl)-4-difluoromethoxy-8-nitro-dibenzo[b,d]furan-1-carboxamide], the melting point is more than 270 °C. Further, the IC50 on PDE4 enzyme (setting [3]) turned out to be 0.01 µM. Besides, the EC50 with PDE4 was 0.148 µM.

In turn, `Nc1ccc2oc3c(OC(F)F)ccc(C(=O)Nc4c(Cl)cncc4Cl)c3c2c1` [Example 59, N-(3,5-dichloropyrid-4-yl)-4-difluoromethoxy-8-amino-dibenzo[b,d]furan-1-carboxamide] gave a melting point of more than 270 °C. Also, the concentration for half-maximal inhibition (IC50) at PDE4 enzyme (setting [3]) stood at 0.00447 µM. In addition, the concentration for a half-maximal effect (EC50) in the data set on PDE4 turned out to be 0.0492 µM.

Values taken from patent publication US7238725B2, “Tricyclic compounds useful for the treatment of inflammatory and allergic disorders: process for their preparation and pharmaceutical compositions containing them” (Glenmark Pharmaceuticals Ltd., priority 2002, dated 2007).
